Assay results published in ChEMBL document CHEMBL1129243, “(S)-(+)-2-(3'-carboxybicyclo[1.1.1]pentyl)-glycine, a structurally new group I metabotropic glutamate receptor antagonist” (J Med Chem, 1996).

Tests used:
Type in all cases: functional, cell-based
[1] = target: T1, Metabotropic glutamate receptor 5 (Homo sapiens, UniProt P41594); experiment: The compound was tested for effect on second messenger formation in BHK cells expressing mGluR5a
[2] = target: T1, Metabotropic glutamate receptor 5; experiment: The compound was tested for inhibitory effect on second messenger formation in BHK cells expressing mGluR5a
[3] = target: T2, Metabotropic glutamate receptor 2 (Homo sapiens, UniProt Q14416); experiment: The compound was tested for inhibitory effect on second messenger formation in BHK cells expressing mGluR2
[4] = target: T3, Metabotropic glutamate receptor 4 (Homo sapiens, UniProt Q14833); experiment: The compound was tested for inhibitory effect on second messenger formation in BHK cells expressing mGluR4a
[5] = target: T1, Metabotropic glutamate receptor 5; experiment: The compound was tested for effect on second messenger formation in BHK cells expressing mGluR5a at half maximal concentration
[6] = target: T3, Metabotropic glutamate receptor 4; experiment: The compound was tested for effect on second messenger formation in BHK cells expressing mGluR4a
[7] = target: T2, Metabotropic glutamate receptor 2; experiment: The compound was tested for effect on second messenger formation in BHK cells expressing mGluR2

T1 sequence (P41594 whole entry): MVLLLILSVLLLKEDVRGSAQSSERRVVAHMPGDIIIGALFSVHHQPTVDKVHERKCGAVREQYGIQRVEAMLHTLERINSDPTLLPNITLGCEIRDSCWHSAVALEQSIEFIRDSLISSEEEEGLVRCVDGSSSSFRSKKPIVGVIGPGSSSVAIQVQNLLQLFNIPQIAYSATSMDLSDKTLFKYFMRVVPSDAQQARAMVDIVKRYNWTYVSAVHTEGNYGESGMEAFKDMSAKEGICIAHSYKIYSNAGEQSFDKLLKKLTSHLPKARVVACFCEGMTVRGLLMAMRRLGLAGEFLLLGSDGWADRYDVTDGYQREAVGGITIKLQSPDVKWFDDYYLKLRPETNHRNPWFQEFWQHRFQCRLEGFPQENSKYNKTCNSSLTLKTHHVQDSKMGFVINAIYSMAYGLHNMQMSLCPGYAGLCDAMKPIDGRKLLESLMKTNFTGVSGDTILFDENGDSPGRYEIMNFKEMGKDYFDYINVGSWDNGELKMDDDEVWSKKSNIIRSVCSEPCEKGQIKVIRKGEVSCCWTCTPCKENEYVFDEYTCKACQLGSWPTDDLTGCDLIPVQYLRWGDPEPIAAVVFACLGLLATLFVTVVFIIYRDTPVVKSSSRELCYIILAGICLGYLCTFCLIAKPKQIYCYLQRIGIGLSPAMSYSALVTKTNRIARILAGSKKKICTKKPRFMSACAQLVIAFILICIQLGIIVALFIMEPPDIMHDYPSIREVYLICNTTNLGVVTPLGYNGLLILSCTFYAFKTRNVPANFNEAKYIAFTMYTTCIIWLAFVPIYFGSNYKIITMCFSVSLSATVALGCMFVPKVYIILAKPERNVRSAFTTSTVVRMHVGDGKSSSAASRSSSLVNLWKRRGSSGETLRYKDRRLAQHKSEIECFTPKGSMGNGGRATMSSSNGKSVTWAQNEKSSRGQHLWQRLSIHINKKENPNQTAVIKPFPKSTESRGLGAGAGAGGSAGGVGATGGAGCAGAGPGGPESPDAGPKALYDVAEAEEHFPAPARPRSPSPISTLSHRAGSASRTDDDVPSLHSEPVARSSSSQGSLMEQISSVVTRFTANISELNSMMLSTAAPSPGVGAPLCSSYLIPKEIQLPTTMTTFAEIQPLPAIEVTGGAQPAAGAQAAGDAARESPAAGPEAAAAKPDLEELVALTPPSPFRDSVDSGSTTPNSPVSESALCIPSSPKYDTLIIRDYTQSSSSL
T2 sequence (Q14416 whole entry): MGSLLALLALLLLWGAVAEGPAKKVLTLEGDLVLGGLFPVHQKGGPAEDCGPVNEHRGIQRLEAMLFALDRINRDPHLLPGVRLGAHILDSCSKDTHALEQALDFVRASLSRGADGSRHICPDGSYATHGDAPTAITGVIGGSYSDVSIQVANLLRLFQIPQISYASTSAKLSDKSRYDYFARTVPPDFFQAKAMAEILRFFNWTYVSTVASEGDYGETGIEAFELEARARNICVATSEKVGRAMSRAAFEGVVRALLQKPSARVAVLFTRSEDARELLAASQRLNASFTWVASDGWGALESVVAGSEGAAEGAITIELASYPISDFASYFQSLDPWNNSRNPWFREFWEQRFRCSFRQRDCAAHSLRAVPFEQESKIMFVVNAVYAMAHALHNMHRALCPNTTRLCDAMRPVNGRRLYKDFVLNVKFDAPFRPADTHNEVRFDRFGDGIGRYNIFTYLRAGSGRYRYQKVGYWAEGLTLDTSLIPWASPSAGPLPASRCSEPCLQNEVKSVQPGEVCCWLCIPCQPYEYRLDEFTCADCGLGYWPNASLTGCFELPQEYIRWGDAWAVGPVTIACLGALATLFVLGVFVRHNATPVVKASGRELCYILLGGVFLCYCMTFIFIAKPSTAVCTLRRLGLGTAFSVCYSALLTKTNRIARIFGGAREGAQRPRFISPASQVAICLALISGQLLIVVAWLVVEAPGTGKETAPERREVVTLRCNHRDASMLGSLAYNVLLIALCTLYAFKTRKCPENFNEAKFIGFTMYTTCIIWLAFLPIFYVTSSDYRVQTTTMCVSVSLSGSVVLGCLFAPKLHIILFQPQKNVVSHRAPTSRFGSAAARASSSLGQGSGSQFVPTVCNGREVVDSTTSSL
T3 sequence (Q14833 whole entry): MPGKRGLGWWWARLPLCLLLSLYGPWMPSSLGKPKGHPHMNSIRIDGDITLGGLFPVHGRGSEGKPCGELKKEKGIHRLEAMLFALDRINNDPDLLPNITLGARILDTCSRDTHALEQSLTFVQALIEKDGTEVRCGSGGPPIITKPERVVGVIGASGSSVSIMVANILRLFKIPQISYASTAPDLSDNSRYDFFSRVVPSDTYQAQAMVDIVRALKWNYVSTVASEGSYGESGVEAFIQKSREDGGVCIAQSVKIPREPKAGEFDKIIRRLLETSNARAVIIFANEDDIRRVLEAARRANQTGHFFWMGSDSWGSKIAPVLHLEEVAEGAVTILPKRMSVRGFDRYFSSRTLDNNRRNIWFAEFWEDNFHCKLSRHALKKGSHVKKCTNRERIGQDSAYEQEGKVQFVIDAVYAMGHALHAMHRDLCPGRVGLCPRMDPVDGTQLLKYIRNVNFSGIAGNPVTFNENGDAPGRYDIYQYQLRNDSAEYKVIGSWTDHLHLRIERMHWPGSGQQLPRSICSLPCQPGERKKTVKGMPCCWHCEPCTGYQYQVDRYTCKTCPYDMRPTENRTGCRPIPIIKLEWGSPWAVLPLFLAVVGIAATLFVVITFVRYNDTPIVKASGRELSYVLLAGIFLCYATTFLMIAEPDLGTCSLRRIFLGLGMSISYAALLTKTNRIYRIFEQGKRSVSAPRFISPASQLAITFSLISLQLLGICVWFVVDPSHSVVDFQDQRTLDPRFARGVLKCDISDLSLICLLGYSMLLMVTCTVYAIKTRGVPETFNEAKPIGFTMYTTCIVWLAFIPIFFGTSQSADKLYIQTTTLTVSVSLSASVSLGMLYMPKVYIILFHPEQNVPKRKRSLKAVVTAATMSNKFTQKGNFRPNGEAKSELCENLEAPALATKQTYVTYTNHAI

EC50 [1]	IC50 [2]	IC50 [3]	IC50 [4]	EC50 [5]	EC50 [6]	EC50 [7]	SMILES
> 300 µM	> 300 µM	> 300 µM	> 300 µM	103 µM	> 300 µM	> 300 µM	N[C@H](C(=O)O)C12CC(C(=O)O)(C1)C2
> 300 µM	> 300 µM	> 300 µM	> 300 µM		> 300 µM	> 300 µM	N[C@@H](C(=O)O)C12CC(C(=O)O)(C1)C2
